The record followed here is patent publication US11008340B2, “Modulators of ROR-gamma” (Vitae Pharmaceuticals, LLC, priority 2015, dated 2021).

One assay addresses T1, recombinant RORγ Ligand Binding Domain (LBD) protein (Homo sapiens, UniProt P51449).
T1 construct: 6×His; GST
T1 sequence (P51449 269-508 limits assumed): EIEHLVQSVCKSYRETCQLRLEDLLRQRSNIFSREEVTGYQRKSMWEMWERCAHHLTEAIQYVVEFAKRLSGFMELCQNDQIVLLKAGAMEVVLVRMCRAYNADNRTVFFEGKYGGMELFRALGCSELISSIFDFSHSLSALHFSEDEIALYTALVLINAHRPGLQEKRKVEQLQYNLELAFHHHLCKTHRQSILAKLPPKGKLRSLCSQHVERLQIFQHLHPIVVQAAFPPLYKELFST
Kind of assay: Radio-Ligand RORγ Binding Assay (Assay 1). The following applies: competition with 25-hydroxy [26,27-3H]-cholesterol, SPA; class symbols; read-out: Avg ROR Bind Ki. The protocol: Radio-Ligand RORγ Binding Assay (Assay 1)
Compounds described herein were tested for ability to bind to RORγ in a cell-free competition assay with commercially available radio-ligand (RL), 25-hydroxy [26,27-^3H]-cholesterol (PerkinElmer, Cat. #NET674250UC), for a ligand binding site on a recombinant RORγ Ligand Binding Domain (LBD) protein expressed as a 6×His-Glutathione-S-Transferase (GST) fusion. The assay was performed in 96-well SPA plates (PerkinElmer, Cat. #1450-401) in 50 mM HEPES buffer, pH 7.4, containing 150 mM NaCl, 5 mM MgCl2, 10% (v/v) glycerol, 2 mM CHAPS, 0.5 mM 3-octylglucopyranoside and 5 mM DTT. Tested compounds were dissolved in DMSO, and semi-log (3.162×) serial dilutions of the compounds were prepared in the same solvent. Two μL of the DMSO solutions were mixed with 28 μL of 8.6 nM 25-hydroxy [26,27-^3H]-cholesterol and 50 μL of 24 nM RORγ LBD. The plate was shaken at 700 rpm for 20 min and incubated for 10 min at rt, after which 40 μL of poly-Lys YSi SPA beads (PerkinElmer, Cat. #RPNQ0010) were added to achieve 50 μg of the beads per well. The plate was incubated on an orbital shaker for 20 min and then for 10 min without agitation at rt. SPA signal for tritium beta radiation was registered on PerkinElmer Microbeta plate reader. […] The percent inhibition vs. concentration data were fit into a four-parameter model, and IC50 values were calculated from the fit as the concentrations corresponding to the inflection points on the dose-response curves. Inhibitory constants (Ki) were calculated using the following equation, where [RL] is the concentration in the assay and KD is a dissociation constant of 25-hydroxy [26,27-^3H]-cholesterol: […]
Take `CCS(=O)(=O)c1ccc([C@H](CO)NC(=O)c2ccc3c(OC[C@H]4CC[C@H](C(F)(F)F)CC4)ncnc3c2)cc1` [Hy1C-1, N-((R)-1-(4-(ethylsulfonyl)phenyl)-2-hydroxyethyl)-4-(((1r,4R)-4-(trifluoromethyl)cyclohexyl)methoxy)quinazoline-7-carboxamide]: the Ki was 100 to 1000 nM.

Consider `CCS(=O)(=O)c1ccc(CNC(=O)c2ccc3c(OC[C@H]4CC[C@H](C(F)(F)F)CC4)ncnc3c2)cc1` [Hy1C-2, N-(4-(ethylsulfonyl)benzyl)-4-(((1r,4r)-4-(trifluoromethyl)cyclohexyl)methoxy)quinazoline-7-carboxamide], for which the Ki lay in the range of 100 to 1000 nM.

The same assay, now with this note: radio-ligand competition, 25-hydroxy [26,27-3H]-cholesterol, RORγ LBD; read-out: Avg ROR Bind Ki.
Consider `CCS(=O)(=O)c1ccc(CNC(=O)c2ccc3c(c2)CN(c2ncc(N4CCOCC4)cn2)C[C@@H]3C(C)C)cc1` (single isomer, unassigned) [Hy7-19.2], for which the Ki was above 1000 nM.

For `CC[C@H]1CN(c2ncc(-c3cccc(OC)n3)cn2)Cc2cc(C(=O)NCc3ccc(S(=O)(=O)CC)cc3)ccc21` (single isomer, unassigned) [Hy7-20.2], the Ki was 100 to 1000 nM.

In the case of `CCS(=O)(=O)c1ccc(CNC(=O)c2ccc3c(c2)CN(c2ncc(-c4ccc(=O)[nH]c4)cn2)C[C@@H]3C(C)C)cc1` (single isomer, unassigned) [Hy7-21.2], the Ki was above 1000 nM.

With `CCS(=O)(=O)c1ccc(CNC(=O)c2ccc3c(c2)CN(c2ncc(-c4ccnc(OC)c4)cn2)C[C@@H]3C(C)C)cc1` (single isomer, unassigned) [Hy7-23.2], the Ki fell in the range of 100 to 1000 nM.

For `CCS(=O)(=O)c1ccc(CNC(=O)c2ccc3c(c2)CN(c2ncc(-c4ccc(=O)n(C)c4)cn2)C[C@@H]3C(C)C)cc1` (single isomer, unassigned) [Hy7-24.2], the Ki is above 1000 nM.

Consider `CCS(=O)(=O)c1ccc(CNC(=O)c2ccc3c(c2)CN(c2ncc(-c4ccn(C)c(=O)c4)cn2)C[C@@H]3C(C)C)cc1` (single isomer, unassigned) [Hy7-25.2], for which the Ki is above 1000 nM.

Regarding `CC[C@@H]1CN(C2CCOCC2)Cc2cc(C(=O)N[C@@H](CO)c3ccc(S(=O)(=O)CC)cc3)ccc21` (single isomer, unassigned) [Hy7-30.1], the inhibitory constant (Ki) was in the range of 100 to 1000 nM.

Take `CC[C@H]1CN(C2CCC(F)(F)CC2)Cc2cc(C(=O)N[C@@H](CO)c3ccc(S(=O)(=O)CC)cc3)ccc21` (single isomer, unassigned) [Hy7-32.2]: the Ki fell in the range of 100 to 1000 nM.

For `CCOC(=O)c1cnc(N2Cc3cc(C(=O)N[C@@H](CO)c4ccc(S(=O)(=O)CC)cc4)ccc3[C@@H](CC)C2)nc1` (single isomer, unassigned) [Hy7-34.2], the Ki was below 100 nM.

Turning to `CCC1CN(C2CCC(C(F)(F)F)CC2)Cc2cc(C(=O)NC(CO)c3ccc(S(=O)(=O)CC)cc3)ccc21` (single isomer, unassigned) [Hy7-35.3], the Ki was below 100 nM.

For the compound `CCC1CN(C2CCC(C(F)(F)F)CC2)Cc2cc(C(=O)NC(CO)c3ccc(S(=O)(=O)CC)cc3)ccc21` (single isomer, unassigned) [Hy7-35.4], the Ki lay in the range of 100 to 1000 nM.

`CC[C@H]1CN(c2ncc(C(F)(F)F)cc2C#N)Cc2cc(C(=O)N[C@@H](CO)c3ccc(S(=O)(=O)CC)cc3)ccc21` (single isomer, unassigned) [Hy7-37.2]: the Ki is below 100 nM.

As to `CCS(=O)(=O)c1ccc(CNC(=O)c2ccc3c(Oc4ccc(C(F)(F)F)cc4)nccc3c2)cc1` [Hy1A-2, N-(4-(ethylsulfonyl)benzyl)-1-(4-(trifluoromethyl)phenoxy)isoquinoline-6-carboxamide], the Ki is 100 to 1000 nM.

Turning to `CCS(=O)(=O)c1ccc(CNC(=O)c2ccc3c(OCc4ccc(C(F)(F)F)cc4)cc(C)nc3c2)cc1` [Hy1B-1, N-(4-(ethylsulfonyl)benzyl)-2-methyl-4-((4-(trifluoromethyl)benzyl)oxy)quinoline-7-carboxamide], the inhibition constant (Ki) lay within 100 to 1000 nM.

Consider `CCS(=O)(=O)c1ccc(CNC(=O)c2ccc3c(OC[C@H]4CC[C@H](C(F)(F)F)CC4)cc(C)nc3c2)cc1` [Hy1B-2, N-(4-(ethylsulfonyl)benzyl)-2-methyl-4-(((1r,4r)-4-(trifluoromethyl)cyclohexyl)methoxy)quinoline-7-carboxamide], for which the Ki was in the range of 100 to 1000 nM.

`CCS(=O)(=O)c1ccc([C@H](CO)NC(=O)c2ccc3c(OC[C@H]4CC[C@H](C(F)(F)F)CC4)cc(C)nc3c2)cc1` [Hy1B-4, N-((R)-1-(4-(ethylsulfonyl)phenyl)-2-hydroxyethyl)-2-methyl-4-(((1r,4R)-4-(trifluoromethyl)cyclohexyl)methoxy)quinoline-7-carboxamide]: the Ki is 100 to 1000 nM.

On to `CCS(=O)(=O)c1ccc(CNC(=O)c2cnc3c(C4CC4)n(C[C@H]4CC[C@H](C(F)(F)F)CC4)nc3c2)nc1` [Hy3B-3, 3-cyclopropyl-N-((5-(ethylsulfonyl)pyridin-2-yl)methyl)-2-(((1r,4r)-4-(trifluoromethyl)cyclohexyl)methyl)-2H-pyrazolo[4,3-b]pyridine-6-carboxamide], for which the Ki lay within 100 to 1000 nM.

`CCS(=O)(=O)c1ccc([C@H](CO)NC(=O)c2cnc3c(C4CC4)n(C[C@H]4CC[C@H](C(F)(F)F)CC4)nc3c2)nc1` [Hy3B-4, 3-cyclopropyl-N-((R)-1-(5-(ethylsulfonyl)pyridin-2-yl)-2-hydroxyethyl)-2-(((1r,4R)-4-(trifluoromethyl)cyclohexyl)methyl)-2H-pyrazolo[4,3-b]pyridine-6-carboxamide]: the Ki is below 100 nM.

`CCS(=O)(=O)c1ccc(CNC(=O)c2cn(C)c3c(Oc4ccc(C(F)(F)F)cc4)nccc23)cc1` [Hy5-1, N-(4-(ethylsulfonyl)benzyl)-1-methyl-7-(4-(trifluoromethyl)phenoxy)-1H-pyrrolo[2,3-c]pyridine-3-carboxamide]: the Ki was 100 to 1000 nM.

Regarding `CCS(=O)(=O)c1ccc(CNC(=O)c2c[nH]c3c(OC[C@H]4CC[C@H](C(F)(F)F)CC4)nccc23)cc1` [Hy5-2, N-(4-(ethylsulfonyl)benzyl)-7-(((1r,4r)-4-(trifluoromethyl)cyclohexyl)methoxy)-1H-pyrrolo[2,3-c]pyridine-3-carboxamide], the inhibitory constant (Ki) was in the range of 100 to 1000 nM.

For the compound `CCS(=O)(=O)c1ccc(CNC(=O)c2cn(C)c3c(OC[C@H]4CC[C@H](C(F)(F)F)CC4)nccc23)cc1` [Hy5-4, N-(4-(ethylsulfonyl)benzyl)-1-methyl-7-(((1r,4r)-4-(trifluoromethyl)cyclohexyl)methoxy)-1H-pyrrolo[2,3-c]pyridine-3-carboxamide], the Ki lay within 100 to 1000 nM.

`CCS(=O)(=O)c1ccc([C@H](CO)NC(=O)c2cn(C)c3c(OC[C@H]4CC[C@H](C(F)(F)F)CC4)nccc23)cc1` [Hy5-5, N-((R)-1-(4-(ethylsulfonyl)phenyl)-2-hydroxyethyl)-1-methyl-7-(((1r,4R)-4-(trifluoromethyl)cyclohexyl)methoxy)-1H-pyrrolo[2,3-c]pyridine-3-carboxamide]: the Ki lay in the range of 100 to 1000 nM.

In the case of `CCS(=O)(=O)c1ccc(CNC(=O)c2cnc3c(c2)CN(c2ncc(C(F)(F)F)cn2)CC3(C)C)cc1` [Hy7B-1, N-(4-(ethylsulfonyl)benzyl)-8,8-dimethyl-6-(5-(trifluoromethyl)pyrimidin-2-yl)-5,6,7,8-tetrahydro-1,6-naphthyridine-3-carboxamide], the Ki was in the range of 100 to 1000 nM.

The same assay, now with this note: radio-ligand competition, RORγ LBD; head without unit (Tables 15, 17); read-out: Avg ROR Bind Ki.
For the compound `CCS(=O)(=O)c1ccc(CNC(=O)c2cc3ccnc(OC[C@H]4CC[C@H](C(F)(F)F)CC4)c3[nH]2)cc1` [Hy4-5, N-(4-(ethylsulfonyl)benzyl)-7-(((1r,4r)-4-(trifluoromethyl)cyclohexyl)methoxy)-1H-pyrrolo[2,3-c]pyridine-2-carboxamide], the Ki fell in the range of 100 to 1000 nM.
